“And” between values parts separate entries of the source, which are not always exact repeats. Equal entries are not always repeated.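 48-hour exposure; five concentrations; linearly interpolated endpoints. At the GI50, growth is halved. Definition used: TGI = concentration required for complete inhibition of growth.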 Residues, ends and D or L forms follow the SMILES beside them. *: point of attachment. Cbz = O=C(OCc1ccccc1)*
Experiments:
Experiment in all cases: NCI anticancer screen, dose series, 48 h
[1] = system: COLO 205 colon
[2] = system: CCRF-CEM leukemia
[3] = system: U251 CNS
[4] = system: UO-31 renal
[5] = system: MALME-3M melanoma
[6] = system: T-47D breast
[7] = system: A498 renal
[8] = system: HOP-62 NSCLC
[9] = system: LOX IMVI melanoma
[10] = system: M14 melanoma

Row | Compound | GI50 [1] | TGI [1] | GI50 [2] [µM] | TGI [2] [µM] | GI50 [3] [µM] | TGI [3] | GI50 [4] [µM] | TGI [4] [µM] | GI50 [5] | TGI [5] | GI50 [6] | TGI [6] | GI50 [7] [µM] | TGI [7] | GI50 [8] | TGI [8] | GI50 [9] [µM] | TGI [9] [µM] | GI50 [10] [µM] | TGI [10] [µM]
1 | CN(C)CCS(=O)(=O)Nc1cc(-c2ccc3ncc(C#N)c(Nc4ccc(F)c(Cl)c4)c3c2)cnc1Cl | 0.188 µM | 0.439 µM | 0.11 | 8.46 | 0.15 | 0.746 µM | 0.188 | 1.29 | 0.0788 µM | 0.469 µM | 0.0732 µM | 0.65 µM | 0.144 | 0.344 µM | 0.248 µM | > 22.7 µM | 0.117 | 0.284 | 0.255 | 1.27
2 | CCOC(=O)c1cc(NS(=O)(=O)c2ccc(C)cc2)cc(C(=O)OCC)c1 | 36.1 µM | > 100 µM | 37.2 | > 100 | 51.3 | > 100 µM | 39.1 | > 100 | > 100 µM | > 100 µM | 21.1 µM | 83.6 µM | 34.3 | > 100 µM | 79.6 µM | > 100 µM | 61.4 | > 100 | 52.5 | > 100
3 | Nc1ncn([C@H]2C[C@H](OP(=O)(O)OC[C@H]3O[C@@H](n4cnc5c(=O)[nH]c(N)nc54)C[C@@H]3O)[C@@H](CO)O2)c(=O)n1 | 41.4 µM | > 100 µM | 9.01 | > 100 | > 100 | > 100 µM | > 100 | > 100 | > 100 µM | > 100 µM | > 100 µM | > 100 µM | > 100 | > 100 µM | 9.27 µM | > 100 µM | 57 | > 100 | > 100 | > 100
4 | O=C1c2c(Cl)c(Cl)c(Cl)c(Cl)c2C(=O)C2(Cl)CC=CCC12Cl (configuration not stated) | 1.52 µM | 2.89 µM | 1.76 | 7.28 | 1.67 | 3.06 µM | 1.71 | 3.28 | 2.03 µM | 4.16 µM | 1.74 µM | 4.01 µM | 12.7 | 25.3 µM | 1.86 µM | 3.65 µM | 1.21 | 2.56 | 1.67 | 3.19
5 | Cc1cccc(Cl)c1NC(=O)c1cnc(Nc2cc(N3CCOCC3)cc(S(C)(=O)=O)c2)s1 | 0.572 µM | > 10 µM | > 10 | > 10 | > 5.57 | > 10 µM | 0.199 | > 6.98 | > 4.16 µM | > 10 µM | 0.292 µM | > 10 µM | 0.254 | 2.39 µM | 0.198 µM | > 10 µM | 0.0977 | 0.938 | 4.01 | > 10
6 | O=C1NC(=NCCc2ccccn2)S/C1=C\c1ccc2ncccc2c1 | 9.05 µM | > 25 µM | 10.6 | > 25 | 9.23 | > 25 µM | 7.91 | 24.3 | 18.1 µM | > 25 µM | 11 µM | > 25 µM | 4.62 | 21.1 µM | 13.9 µM | > 25 µM | 13.3 | > 25 | 12.7 | > 25
7 | COc1ccc2c(c1)C(c1cc(OC)c3c(c1)OCO3)C1=C(COC1=O)N2 (configuration not stated) | 0.277 µM | 0.713 µM | 0.382 | > 100 | 0.419 | > 47.9 µM | 5.05 | > 100 | – | > 100 µM | 6.67 µM | > 100 µM | 0.105 | 1.48 µM | 0.397 µM | > 47.5 µM | 0.66 | > 100 | 0.233 | 0.742
8 | COC(=O)CNc1nc(N(C)O)nc(N(C)O)n1 | 3.99 µM | > 100 µM | 0.697 | > 100 | 2.26 | > 100 µM | 3.02 | 50.5 | 19.3 µM | 77.4 µM | 17.7 µM | > 100 µM | 20.3 | > 100 µM | 2.12 µM | > 100 µM | 1.71 | > 100 | 3.38 | 32.6
9 | COc1cc2c(c(OC)c1OC)-c1c(c3ccc([N+](=O)[O-])cc3c(=O)n1CCCN)C2=O | 8.72 µM | > 50 µM | 0.826 | 2.12 | 0.92 | 1.75 µM | 0.892 | 1.68 | 0.952 µM | 1.92 µM | 1.88 µM | 7.85 µM | 8.22 | 18 µM | 0.937 µM | 1.73 µM | 1.01 | 2.06 | 0.835 | 1.53
10 | COc1cc2nc3cc([N+](=O)[O-])ccc3c(NCCNCC(C)O)c2cc1OC (configuration not stated) | 0.368 µM | 1.57 µM | 0.34 | 3.13 | 0.442 | 2.26 µM | 1.67 | 5.84 | 0.785 µM | 2.25 µM | 0.365 µM | 2.33 µM | 1.37 | 3.02 µM | 0.713 µM | 2.87 µM | 0.768 | 2.51 | 1.25 | 2.96
11 | CC(C)C[C@@H](C=O)NC(=O)[C@H](CC(C)C)NC(=O)[C@H](CC(C)C)NC(=O)OCc1ccccc1 (Cbz-Leu-Leu-Leu-aldehyde) | 0.404 µM | 1.62 µM | 0.378 | 64.2 | 0.332 | 1.07 µM | 0.252 | 0.943 | – | – | 0.222 µM | 0.598 µM | 0.424 | 2.22 µM | – | – | 0.206 | 0.46 | 0.338 | 1.74
12 | Cn1cc(C2=C(c3cn(CCCCCO)c4ccccc34)C(=O)NC2=O)c2ccccc21 | 3.89 µM | 11.4 µM | 3.01 | > 16.6 | 5.98 | > 17.3 µM | 4.11 | 12.9 | 6.9 µM | 16.3 µM | 6.44 µM | 16 µM | 4.18 | 14.3 µM | 5.92 µM | 15.6 µM | 4.99 | > 19.4 | 5.38 | > 25
13 | CN(C)Cc1c(C(=O)NCCOc2ccc(C(=O)NO)cc2)oc2ccccc12 | 0.133 µM | 0.282 µM | 0.135 | 25.8 | 0.229 | 0.976 µM | 0.296 | 2.66 | 0.0709 µM | 36.2 µM | 0.163 µM | 0.777 µM | 0.126 | 0.411 µM | 0.247 µM | 12.1 µM | 0.289 | 1.11 | 0.223 | 1.68
14 | NCCSC(c1ccccc1)(c1ccccc1)c1ccccc1 | 0.435 µM | 1.69 µM | 1.85 | 6 | 0.373 | 1.72 µM | 2.03 | 12.9 | – | – | 2.62 µM | 8.42 µM | 1.03 | 8.39 µM | 2.43 µM | 14.2 µM | 1.42 | 2.9 | 0.354 | 1.15
15 | CCCN(CCC)c1ccc(C=O)c(C)c1 | 29.1 µM | > 100 µM | 46.8 | > 100 | 38.5 | > 100 µM | 21.5 | > 100 | 43.8 µM | > 100 µM | 20.8 µM | 98.9 µM | 1.27 | 3.28 µM | 98.1 µM | > 100 µM | 65 | > 100 | 44.8 | > 100
16 | CC1(C)CCC(C)(C)c2cc(NC(=O)c3ccc(C(=O)O)cc3)ccc21 | – | > 55.9 µM | – | > 31.6 | – | > 62.5 µM | – | 39.5 | – | 60.1 µM | – | > 100 µM | – | 85.1 µM | – | > 57.6 µM | – | 48.3 | – | > 65.1
17 | N#CC1=C(N)Oc2c(sc3c(Br)cccc23)C1c1ccc(Cl)cc1 (configuration not stated) | 0.774 µM | 2.72 µM | 0.368 | 2.36 | 0.563 | 2.36 µM | 0.614 | 2.54 | – | – | 0.464 µM | 11.6 µM | 0.47 | 11 µM | 0.89 µM | 6.42 µM | 0.579 | 8.45 | 0.45 | 2.65
18 | Oc1ccccc1/C=N\NC(=S)N/N=C/c1ccccc1O | 4.23 µM | 18.9 µM | 0.648 | > 100 | 1.07 | > 100 µM | 0.489 | 4.91 | – | – | 3.19 µM | 54.5 µM | 3.66 | 21.9 µM | 4.22 µM | > 100 µM | 1.4 | 27.7 | 1.63 | 6.33
19 | C/C=C(\C)C(=O)O[C@H]1C=CC(=O)O[C@H]1COC(=O)[C@H](C)O | 3.07 µM | 15.5 µM | – | – | 7.35 | 21 µM | 9.79 | 25.5 | 5.5 µM | 15.8 µM | 3.81 µM | 19.2 µM | 15.7 | 31.4 µM | 19.8 µM | 35.4 µM | 3.59 | 14.8 | 7.51 | 23.1
20 | O=S(=O)(NCCCNc1cc(-c2cn(-c3ccccc3)nc2-c2cccc(O)c2)ccn1)c1ccc(Br)cc1 | 1.65 µM | 3.4 µM | – | – | 1.21 | 4.44 µM | 2.17 | 8.95 | – | – | 1.76 µM | 6.38 µM | 0.386 | 2.89 µM | 1.88 µM | 4.59 µM | 1.49 | 2.9 | 1.78 | 3.78
21 | COc1ccc2nc3cccc([N+](=O)[O-])c3c(NC(C)CN(C)C)c2c1 (configuration not stated) | 1.84 µM | 6.89 µM | 2.21 | 7.62 | 0.371 | 2.17 µM | 1.7 | 3.62 | – | – | 5.52 µM | 36 µM | 2.09 | 4.59 µM | 1.18 µM | 2.96 µM | 1.91 | 5.04 | 1.41 | 2.8
22 | CN1CCN(CCCN2c3ccccc3Sc3ccc(Cl)cc32)CC1 | 4.37 µM and 36.6 µM | 11.6 µM and 51.1 µM | 6.46 | 15.1 | – | 11.8 µM and 87.3 µM | – | 9.49 | 6.01 µM and 39.7 µM | 14.3 µM and 55.9 µM | 5.72 µM and 35.5 µM | 13 µM and 62.6 µM | – | 5.82 µM and 31.6 µM | 6.32 µM and 48.5 µM | 13.6 µM and 85.6 µM | 4.75 | 11.6 | – | –
23 | Nc1nn(C(=O)Nc2c(F)cccc2F)c2ccccc12 | > 100 µM | > 100 µM | – | – | 96.1 | > 100 µM | 18.6 | > 100 | > 100 µM | > 100 µM | 68.7 µM | > 100 µM | 31.4 | > 100 µM | 51 µM | > 100 µM | 49.3 | > 100 | 74.6 | > 100
24 | OCC1CCCC1O (configuration not stated) | – | > 100 µM | – | > 100 | – | > 100 µM | – | > 100 | – | > 100 µM | – | > 100 µM | – | > 100 µM | – | – | – | – | – | > 100
25 | C=CCOC(=O)Nc1cccn([C@H](CC(C)C)C(=O)NCCC(C)C)c1=O | > 100 µM | > 100 µM | 26.8 | 90.3 | 92.3 | > 100 µM | 27.5 | > 100 | > 100 µM | > 100 µM | 68.2 µM | > 100 µM | 17.2 | > 100 µM | > 100 µM | > 100 µM | – | – | > 100 | > 100
26 | CCNCCNc1cc(-c2ccc(C(F)(F)F)cc2)c(C#N)c2nc3cc(Cl)c(Cl)cc3n12 | 1.68 µM | 3.22 µM | – | – | 1.67 | 3.08 µM | 1.65 | 3.25 | – | – | 1.94 µM | 3.78 µM | 2 | 3.6 µM | 1.96 µM | 3.56 µM | 0.543 | 1.88 | 1.59 | 3.12
27 | CCCCCCCCCCCCCCCCN(CC)CC | 2.01 µM | 3.82 µM | – | – | – | – | 1.6 | 3.47 | 1.92 µM | 4.35 µM | 3.39 µM | 17 µM | 17.9 | 37.2 µM | 2.87 µM | 8.77 µM | 1.73 | 3.38 | 1.94 | 3.84

Source: PubChem BioAssay (NCI)
